Measured values reported in US12514931B2, “Microsphere-drug combination” (UCL Business LTD, priority 2019, dated 2026).

Legend:
[1] = Loading of taxanes onto PLGA TIPS microspheres via antisolvent precipitation (drug loading efficiency, UV 229 nm); assay type: physicochemical; conditions: for taxane loaded onto the microspheres from the solution: 0.1% (w/v) pure taxane in ethanol, 5 mg dry PLGA TIPS microspheres, within 60 minutes of initiating mixing
Description: A facile method was developed to load DTX and other taxanes such as paclitaxel and cabazitaxel onto TIPS microspheres via antisolvent precipitation (FIG. 1). 5 mg of PLGA TIPS microspheres were transferred into 20 ml clear Type 1B boroscilicate glass vials and sealed with a butyl injection stopper. 4.5 mL of ultrapure water was added to the vial and vortexed for 10 seconds. 0.5 ml of 0.1% (w/v) taxane in ethanol, or a formulation of docetaxel or paclitaxel matching Taxotere® or Taxol® was added using a 1 mL syringe with a 25G needle through the rubber stopper, when the vial was inverted. The vial was then vortexed for 10 seconds and placed on a roller mixer (IKA® Roller 6 Digital; 60 rpm) at room temperature for predetermined periods (5, 15, 30, 60, 120 minutes).
Drug loading efficiency (DLE) of the taxane, such as DTX, onto the TIPS microspheres at each time-point was calculated according to Equation 1. The amount of free taxane left in the solution was measured by UV spectroscopy at the wavelength of 229 nm using a Nanodrop 2000c spectrophotometer (Thermo Scientific, Waltham, MA, USA).
• 1. Dry TIPS PLGA microspheres (size range of 250-350 μm): Docetaxel loaded onto 5 mg PLGA TIPS microspheres as described directly above. […] An equivalent number of solid PLGA microspheres (size range of 250-350 μm) to the quantity of microspheres in 5 mg of dry TIPS PLGA microspheres were transferred into 20 ml clear Type 1B boroscilicate glass vials and sealed with a butyl injection stopper. […] Drug loading efficiency (DLE) of docetaxel (DTX) onto the TIPS microspheres at each time-point was calculated according to Equation 1. The amount of free docetaxel left in the solution was measured by UV spectroscopy at the wavelength of 229 nm using a Nanodrop 2000c spectrophotometer (Thermo Scientific, Waltham, MA, USA). […]

[2] = Measurement of DTX in plasma after administration (LC-MS/MS); assay type: in vivo, BALB/cAnNCrl mice
Description: Docetaxel-loaded TIPS microspheres were prepared via anti-solvent precipitation, as outlined above. […] For measurement of circulating DTX in plasma, blood samples were collected via the tail vein at day 0 (pre-dose), and days 1, 2, 3, 7, 10 then every 5 days until day 35 immediately before the end of in life phase. Blood samples were collected into 10 μl capillaries containing sodium heparin (Hirschmann, Eberstadt, Germany) and placed in wells of a 2 ml deep well plate that was stored at −80° C. until extraction.
On the day of the extraction, calibration curve and sample plates were thawed. 125 μl of water:acetonitrile containing 0.4% […] was added to blanks, calibration curve and QCs. 125 μl of 70:30 water:acetonitrile containing 0.4% DMSO was added to all samples. 40 μl of each […]:water:acetonitrile sample was taken and protein precipitated with 120 μl acetonitrile containing DTX-D9 (25 nM). Samples were mixed and centrifuged. Supernatant was taken and diluted 40:60 with 0.5% sodium acetate (20 μM) in ammonium acetate (10 mM, pH5).
Liquid chromatography-mass spectrometry analysis was carried out with a Waters (Milford, MA) H-class Acquity solvent manager and sample manager on a Waters Acquity HSS PFP column (1.8 μm, 50 mm×2.1 mm id) with a gradient consisting of 10 mM ammonium acetate (pH 5.0) and acetonitrile mobile phases. The flow rate was 0.6 ml/min and the run time 5.6 minutes. Analyte and internal standard were ionised using electrospray ionisation in positive ion mode. Detection of analytes was via tandem mass spectrometry (MS/MS) using a Waters Xevo TQ-S mass spectrometer in the multiple reaction monitoring (MRM) mode. For DTX and DTX-D9 (IS), the transitions m/z 830.4-248.1/304.2 and m/z 839.4-313.0 were monitored respectively. The calibration curve was linear over the concentration range […].

[3] = DTX concentration in tissues from explanted organs (LC-MS/MS); assay type: in vivo, NSG mice; conditions: NSG, mouse, intravenous, 10 mg/kg; for concentration at 1 day: day 1 post-administration; for concentration at 10 day: day 10 post-administration; for concentration at 35 day: day 35 post-administration
Description: At the end of the in-life phase (day 1, 10 and 35 post-treatment) the mice were euthanised by overdose of CO2, followed by cervical dislocation and organs (heart, liver, kidneys, lungs and spleen) were collected, weighed and immediately frozen in liquid nitrogen before storage at −80° C. until further analysis. Evaluation of docetaxel concentrations was carried out by liquid chromatography tandem mass spectrometry in tissue following homogenisation in 3 ml/g (spleens 5 ml/g) 10 mM PBS using a Precellys 24 homogeniser (Bertin technologies, Montigny-le-Bretonneux, France). 45 μl tissue homogenate was spiked with 5 μl DMSO, samples were mixed and protein precipitated with 150 μl acetonitrile containing DTX-D9 as internal standard (25 nM). Samples were mixed and centrifuged. Supernatant was taken and diluted 40:60 with 0.5% sodium acetate (20 μM) in ammonium acetate (10 mM, pH 5). Blanks, calibration curve and QCs were prepared as above using tissues obtained from the same strain of mice (NSG) and spiked with DMSO, working calibration standard and working QC respectively. Blanks consisted of protein precipitated with acetonitrile alone, blank+, standards and QCs were protein precipitated with acetonitrile containing DTX-D9.

PC3 xenograft tumour = test: In vivo tumour growth inhibitory activity, PC3 xenograft; set-up: species or system NSG immunodeficient mice
Description: Female NSG™ immunodeficient mice (NOD.Cg-PrkdscidIl2rgtm1Wjl/SzJ; Charles River), aged 6-7 weeks and 18-20 g in body weight, were acclimatised for 1 week prior to injection of tumour cells. PC3 cells (5.0×10^6 cells in 100 μl phosphate buffered saline [PBS]) were injected subcutaneously into the right flank of each mouse. The dimensions of tumour were measured three times per week using digital callipers and the tumour volume calculated using the following formula: […]

[4] = Docetaxel release from DTX-TIPS microspheres in dynamic perfusion system; assay type: physicochemical; conditions: PBS pH 7.4, 37 C, 0.01 mL/min; over 5 days
Description: Release profile of DTX from the TIPS microspheres was investigated using a dynamic perfusion system to simulate tissue perfusion of the drug-device combination in the physiological milieu when used in clinic following radical prostatectomy. Thus, the perfusion system was placed inside an incubator at 37° C. and physiological simulated medium (phosphate buffed saline (PBS); pH 7.4) was used as perfusate. DTX-loaded microspheres were mixed with 100 μl of 70% (v/v) GranuGel® (Convatec, UK) diluted in ultrapure water and the mixture was placed between two 25 mm circular filter papers (Whatman® qualitative cellulose filter paper, Grade 1), where their positions were held by a Swin-Lok™ plastic membrane filter holder. A hypodermic needle (18G×40 mm) connecting the outlet of the filter holder, was inserted through the lid of a 50 ml polypropylene container to collect the perfusate. PBS was pumped through the filter holder by a peristaltic pump (Harvard Apparatus) at a flow rate of 0.01 mL/min. […]
The amount of DTX released in the perfusate was determined using a predetermined standard curve. At each measurement, the concentration of DTX in the release medium collected in the polypropylene container was determined by UV spectroscopy at 229 nm as described above, to calculate the cumulative DTX release according to Equation 2.

PC3 cells = test: Colony formation assay with perfusate from DTX-TIPS microspheres; assay type: cell-based, human; conditions: DTX released into perfusate during the first 5 days
Description: PC3 cells were maintained in Ham's F12-K medium (Kaighn's modification) (Invitrogen, 21127-022) supplemented with 10% (v/v) foetal bovine serum (FBS) and 1% antibiotics (referred to henceforth as complete medium). Cells were cultured at 37° C. under 5% CO2 atmosphere in a humidified incubator.
PC3 cells cultured in 6 well plates were incubated for 48 hours in 2 ml of perfusate (conditioned complete culture medium) collected from DTX-TIPS microspheres loaded into the perfusion system, as outlined above. Colony formation assays were performed as previously described (Franken NAP, Rodermond HM, Stap J, Haveman J, van Bree C. Clonogenic assay of cells in vitro. Nat Protoc. 2006; 1(5):2315-2319). […] The colonies were counted in ImageJ using the ‘Colony Counter’ plug in (processing parameters: size 100-30,000; circularity 0.5-1) (https://imagej.nih.gov/ij/plugins/colony-counter.html).
Plating efficiency (PE) was estimated by dividing the number of colonies counted by the number of cells initially seeded. […]

With `CO[C@H]1C(=O)[C@]2(C)[C@@H](OC)C[C@H]3OC[C@@]3(OC(C)=O)[C@H]2[C@H](OC(=O)c2ccccc2)[C@]2(O)C[C@H](OC(=O)[C@H](O)[C@@H](NC(=O)OC(C)(C)C)c3ccccc3)C(C)=C1C2(C)C` [cabazitaxel] the “taxane loaded onto the microspheres from the solution” value [1] was “about 60%”.
With `CC(=O)O[C@@]12CO[C@@H]1C[C@H](O)[C@@]1(C)C(=O)[C@H](O)C3=C(C)[C@@H](OC(=O)[C@H](O)[C@@H](NC(=O)OC(C)(C)C)c4ccccc4)C[C@@](O)([C@@H](OC(=O)c4ccccc4)[C@H]21)C3(C)C` [docetaxel, Docetaxel] the “taxane loaded onto the microspheres from the solution” value [1] was “Approximately 80%”, the “time of maximum loading onto the TIPS particles” value ([1]; room temperature, no heating or cooling steps) was ≤ 60 min and the “plasma DTX level, I.V. DTX relative to DTX-TIPS group” value ([2]; 1 hour post-administration) was 102 fold. For the same compound, the “plasma DTX level, I.V. DTX relative to DTX-TIPS group” value ([2]; 24 hour post-administration) was 8 fold, the DTX in plasma ([2]; 48 hours, 72 hours, day 10 and day 15, I.V. 10 mg/kg once weekly for three weeks) was “detectable levels of DTX remaining in the plasma” and the concentration at 1 day ([3]; Heart) was 340 ± 42.9 nM. It also gave a concentration at 10 day ([3]; Heart) of 90.1 ± 19.4 nM, a concentration at 35 day ([3]; Heart) of 0.97 ± 2.37 nM and a concentration at 1 day ([3]; Kidney) of 115 ± 22.4 nM. For the same compound, the concentration at 10 day ([3]; Kidney) was 115 ± 22.4 nM, the concentration at 35 day ([3]; Kidney) was 1.17 ± 2.86 nM and the concentration at 1 day ([3]; Liver) was 87.3 ± 7.85 nM. For the same compound, the concentration at 10 day ([3]; Liver) was 27 ± 11.9 nM, the concentration at 35 day ([3]; Liver) was 0 nM and the concentration at 1 day ([3]; Lung) was 641 ± 92.4 nM. It also gave a concentration at 10 day ([3]; Lung) of 256 ± 35.5 nM, a concentration at 35 day ([3]; Lung) of 13.8 ± 16.2 nM and a concentration at 1 day ([3]; Spleen) of 14.1 ± 11.9 nM. The concentration at 10 day ([3]; Spleen) was 35.3 ± 51.9 nM, the concentration at 35 day ([3]; Spleen) was 0 nM and the “tumour volume over the study period” value (PC3 xenograft tumour; Example 8, compared with saline or control microsphere group) was “Tumour growth inhibition was most apparent”. The “tumour volume / tumour growth inhibition” value (PC3 xenograft tumour; Example 9, DTX-TIPS compared with I.V. DTX, until day 21) was “did not increase”, the “cumulative release of total DTX loaded” value [4] was “approximately 95%” and the “toxicity against the PC3 cells in the colony forming assay” value (PC3 cells) was 100%.
